Values joined by “and” are separate entries in the source; they are usually repeats but may differ in a detail not shown here. Identical values can stand only once.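 Exposure lasted 48 hours, with cells grown in 96-well plates and compounds tested at five concentrations. GI50: concentration for 50% inhibition of growth. The concentration for full growth arrest is given as TGI.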
Key:
Assay in all cases: NCI-60 cell line screen, 48 h
HOP-62 NSCLC = tested on: HOP-62 NSCLC
786-0 renal = tested on: 786-0 renal
NCI-H522 lung = tested on: NCI-H522 lung
TK-10 renal = tested on: TK-10 renal
ACHN renal = tested on: ACHN renal
LOX IMVI melanoma = tested on: LOX IMVI melanoma
SNB-75 CNS = tested on: SNB-75 CNS
M14 melanoma = tested on: M14 melanoma
IGROV1 ovarian = tested on: IGROV1 ovarian
CCRF-CEM leukemia = tested on: CCRF-CEM leukemia

Row | Compound | GI50 (HOP-62 NSCLC) | TGI (HOP-62 NSCLC) | GI50 (786-0 renal) | TGI (786-0 renal) | GI50 (NCI-H522 lung) | TGI (NCI-H522 lung) | GI50 (TK-10 renal) | TGI (TK-10 renal) | GI50 (ACHN renal) | TGI (ACHN renal) | GI50 (LOX IMVI melanoma) | TGI (LOX IMVI melanoma) | GI50 (SNB-75 CNS) | TGI (SNB-75 CNS) | GI50 (M14 melanoma) | TGI (M14 melanoma) | GI50 (IGROV1 ovarian) | TGI (IGROV1 ovarian) | GI50 (CCRF-CEM leukemia) | TGI (CCRF-CEM leukemia)
1 | COc1cc(/C=C/C(=O)c2c(C)nc3ccccc3c2C)ccc1OCCCN1CCN(C(=O)c2ccco2)CC1 | 14.7 µM | 30 µM | 7.83 µM | 20.5 µM | 5.06 µM | 23.9 µM | 15.3 µM | 30 µM | 10.2 µM | 25.1 µM | 7.75 µM | 21.5 µM | 12.8 µM | 27.6 µM | 11.6 µM | 23.8 µM | 6.7 µM | 24.6 µM | 3 µM | 17.9 µM
2 | CSc1ccc(C(=O)/C=C/c2ccccc2Cl)cc1 | 17.4 µM | 35.4 µM | 13.1 µM | 27.6 µM | 10.9 µM | 33.1 µM | 18.4 µM | 41.5 µM | 15 µM | 28.5 µM | 6.08 µM | 19.2 µM | 22.2 µM | 45.2 µM | 16.6 µM | 36.1 µM | 4.56 µM | 17 µM | 19.6 µM | > 100 µM
3 | Cc1ccc(OCC2OC(n3cnc4c(Br)nc(Br)nc43)CC2Oc2ccc(C)cc2)cc1 (stereo not given) | 9.08 µM | 19.2 µM and 17.1 µM | 1.57 µM | 3.48 µM and 9.92 µM | 1.65 µM | 2.8 µM and 3.27 µM | 14.4 µM | 28.4 µM and > 54.3 µM | 5.29 µM | 14.8 µM and 4.93 µM | 1.42 µM | 2.47 µM and 3.67 µM | 8.32 µM | 18.3 µM and 9.29 µM |  | 10.6 µM and 7.47 µM | 2.71 µM | 8.86 µM and 9.89 µM | 1.8 µM | 3.44 µM and > 25.5 µM
4 | Nc1ncnc2c1ccn2[C@@H]1O[C@H]([C@H](O)c2ccc(Cl)c(F)c2)[C@@H](O)[C@H]1O | > 100 µM | > 100 µM | > 100 µM | > 100 µM | > 100 µM | > 100 µM | > 100 µM | > 100 µM | > 100 µM | > 100 µM | > 100 µM | > 100 µM | > 100 µM | > 100 µM | > 100 µM | > 100 µM | 48.6 µM | > 100 µM | > 100 µM | > 100 µM
5 | CN(C)c1ccc2nc(CC(O)(C(F)(F)F)C(F)(F)F)ccc2c1 |  | > 10 µM |  | > 10 µM |  | > 10 µM |  | > 10 µM |  | > 10 µM |  | > 10 µM |  | > 10 µM |  | > 10 µM |  | > 10 µM |  | > 10 µM
6 | Cc1nccc2c3ccc(OCc4cn(-c5ccc(Cl)cc5)nn4)cc3n(CC(C)C)c12 |  |  | 2.09 µM | 8.33 µM | 4.17 µM | 15.5 µM | 6.89 µM | 19.5 µM | 3.62 µM | 9.59 µM | 3.63 µM | > 33.3 µM | 5.09 µM | 14.4 µM | 1.61 µM | 13.9 µM | 4.99 µM | 18.7 µM | 2.04 µM | > 33.3 µM
7 | COc1ccc(N(C)c2nc(Cl)nc3cnn(C)c23)cc1 | < 0.0118 µM | > 100 µM | < 0.01 µM | > 100 µM | < 0.01 µM |  | > 68.6 µM | > 100 µM | < 0.0145 µM | > 100 µM | < 0.011 µM | > 100 µM | < 0.01 µM | > 100 µM | < 0.01 µM | > 100 µM | < 0.0189 µM | > 100 µM | < 0.0146 µM | > 100 µM
8 | CC1(C)N=C(N)N=C(N)N1c1cccc(Br)c1 | 0.777 µM | > 100 µM | 0.093 µM | > 100 µM | 4.29 µM | > 100 µM |  | > 100 µM | 0.786 µM | > 100 µM | 0.146 µM | > 100 µM | > 59 µM | > 100 µM | 0.558 µM | > 100 µM | 0.202 µM |  | 2.24 µM | > 100 µM
9 | Cn1c2ccccc2c2c(=O)n(CCCC(=O)OC(=NC3CCCCC3)NC3CCCCC3)c3c(-c4ccccc4)nnn3c21 | > 100 µM | > 100 µM | > 100 µM | > 100 µM | 69.5 µM | > 100 µM | > 100 µM | > 100 µM | > 100 µM | > 100 µM | > 100 µM | > 100 µM | 44.6 µM | > 100 µM | > 100 µM | > 100 µM | 15.4 µM | 94.4 µM | > 100 µM | > 100 µM
10 | C/C(=N/N=C(N)N)c1ccc(NC(=O)Nc2ccc(/C(C)=N/N=C(N)N)cc2)cc1 | 21.8 µM | > 60.3 µM | 10.7 µM | 30.1 µM | 7.14 µM | 28.8 µM | 6.2 µM | 33.8 µM | 20.7 µM | > 55.4 µM | 21.5 µM | > 70.1 µM | 17.6 µM | 38.1 µM | 35.7 µM | > 75.1 µM | 7.47 µM | 23.9 µM | 21.7 µM | 97.8 µM
11 | N#CC1C(=O)NC(c2ccccc2[N+](=O)[O-])c2sc3c(F)cccc3c21 (stereo not given) | 2.12 µM | 28.9 µM | 33 µM | > 100 µM | 14.1 µM | 48 µM | 11.5 µM | 60.6 µM | 15.7 µM | > 100 µM | 15.9 µM | 37.8 µM | 1.62 µM | 94.9 µM | 16.3 µM | 47.5 µM | 0.0549 µM | 5.11 µM | 21.6 µM | > 87.4 µM
12 | C=CCc1c(O)c(C(=O)/C=C/c2ccccc2)c(OC)c2ccoc12 | 5.32 µM | 17.8 µM | 4.12 µM | 16.8 µM | 2.15 µM | 9.28 µM | 4.96 µM | 17.3 µM | 3.79 µM | 13.8 µM | 1.56 µM | 2.93 µM | 1.39 µM | 6.76 µM | 5.36 µM | 22.9 µM | 3.35 µM | 11.6 µM | 2.75 µM | > 100 µM
13 | CCCCCCCCCCCCCB(O)O |  | > 100 µM |  | > 100 µM |  | > 100 µM |  | > 100 µM | > 100 µM and 45.4 µM | > 100 µM |  | > 100 µM |  | > 100 µM and 37.6 µM |  | > 100 µM |  | > 100 µM |  | > 100 µM
14 | O=c1c(Cl)cc2nc3ccccc3sc-2c1Cl |  | 46.1 µM |  | 45.8 µM |  | 25.9 µM |  | 33.1 µM |  | 30.2 µM |  | 43 µM |  | 32.7 µM |  | 37.2 µM |  | 28.1 µM |  | 43.3 µM
15 | Cc1ccc2nc(NC(=O)/C(=N\NC(=S)NN)C3C(=O)NC(=S)NC3=O)sc2c1 |  | > 100 µM |  | > 100 µM |  | > 100 µM |  | > 100 µM |  | > 100 µM |  | > 100 µM |  | > 100 µM |  | > 100 µM |  | > 100 µM |  | > 100 µM
16 | COc1ccc2c(c1)C(=O)c1c-2c(Nc2cccc(C(C)=O)c2)nc2ccccc12 | 0.727 µM | 2.49 µM | 3.78 µM | 14 µM | 8.53 µM | 35.1 µM | 24.8 µM | 65 µM | 4.21 µM | 14.9 µM | 13.4 µM | 27.5 µM | 5.55 µM | 20.5 µM | 15.5 µM | 46.5 µM | 3.67 µM | 18.4 µM | > 100 µM | > 100 µM
17 | C=CCN(N=O)C(=O)NCCCCC(NC(C)=O)C(=O)NCc1ccccc1 (stereo not given) |  | > 100 µM |  | > 100 µM |  | > 100 µM |  | > 100 µM |  | > 100 µM |  | > 100 µM |  | > 100 µM |  | > 100 µM |  | > 100 µM |  | > 100 µM
18 | CN(C)CCNC(=O)NC[C@H]1CC[C@@H]2[C@H](O1)c1cc(C(F)(F)F)ccc1N[C@H]2c1ccccc1 | 1.71 µM | 24.1 µM | 5.42 µM | 36.3 µM | 0.0506 µM | 0.303 µM | 9.78 µM | 27.5 µM | 10.5 µM | 23 µM | 2.53 µM | 27.3 µM | 0.32 µM | 23.4 µM | 0.041 µM | 0.684 µM | 0.578 µM | 40.7 µM | 0.137 µM | 3.85 µM
19 | C=C1C(=O)O[C@H]2[C@H]1CC/C(COC(=O)NCCCCCCCCNC(=O)OC/C1=C/CC[C@@]3(C)O[C@H]3[C@H]3OC(=O)C(=C)[C@@H]3CC1)=C\CC[C@@]1(C)O[C@@H]21 | 1.53 µM | 3.49 µM | 0.244 µM | 0.646 µM | 0.186 µM | 0.407 µM | 0.284 µM | 0.855 µM | 0.258 µM | 0.662 µM | 0.178 µM | 0.368 µM | 1.25 µM | 3.5 µM | 0.272 µM | 0.8 µM | 1.01 µM | 2.61 µM | 0.255 µM | 0.837 µM
20 | CN1CCN(Cc2ccc(NC(=O)c3cncc(C#Cc4cnc(N)c5cnccc45)c3)cc2C(F)(F)F)CC1 | 0.233 µM | 4.32 µM | 0.314 µM | 7.73 µM | 0.226 µM | 9.45 µM | 0.436 µM | 6.73 µM | 0.201 µM | 1.43 µM | 0.0745 µM | 0.26 µM | 0.233 µM | 1.71 µM | 0.0727 µM | 0.281 µM | 0.141 µM | 0.649 µM | 0.335 µM | 8.71 µM

— PubChem BioAssay (NCI)
